Test results taken from article PMC11440035, “Interaction of myricetin, ampelopsin (dihydromyricetin), and their sulfate metabolites with serum albumin, cytochrome P450 (CYP2C9, 2C19, and 3A4) enzymes, and organic anion‐transporting polypeptides (OATP1B1 and OATP2B1)” (Pharmacology Research & Perspectives, 2024).
Where two headings read alike, the source gives them in different places.

What was measured:
OATP2B1 [1] = target: T1, OATP2B1 (Homo sapiens, UniProt O94956); assay: Uptake of flavonoids by A431-OATP2B1 versus mock cells (APB fluorescence); type: cell-based; conditions: for cellular flavonoid level in OATP2B1‐overexpressing versus mock control cells: 10 μM flavonoid, 15 min, 37°C; for substrate of OATP2B1: conclusion from uptake studies
T1 construct: expressed in transfected cells; host or cells: A431
T1 sequence (O94956 1-709): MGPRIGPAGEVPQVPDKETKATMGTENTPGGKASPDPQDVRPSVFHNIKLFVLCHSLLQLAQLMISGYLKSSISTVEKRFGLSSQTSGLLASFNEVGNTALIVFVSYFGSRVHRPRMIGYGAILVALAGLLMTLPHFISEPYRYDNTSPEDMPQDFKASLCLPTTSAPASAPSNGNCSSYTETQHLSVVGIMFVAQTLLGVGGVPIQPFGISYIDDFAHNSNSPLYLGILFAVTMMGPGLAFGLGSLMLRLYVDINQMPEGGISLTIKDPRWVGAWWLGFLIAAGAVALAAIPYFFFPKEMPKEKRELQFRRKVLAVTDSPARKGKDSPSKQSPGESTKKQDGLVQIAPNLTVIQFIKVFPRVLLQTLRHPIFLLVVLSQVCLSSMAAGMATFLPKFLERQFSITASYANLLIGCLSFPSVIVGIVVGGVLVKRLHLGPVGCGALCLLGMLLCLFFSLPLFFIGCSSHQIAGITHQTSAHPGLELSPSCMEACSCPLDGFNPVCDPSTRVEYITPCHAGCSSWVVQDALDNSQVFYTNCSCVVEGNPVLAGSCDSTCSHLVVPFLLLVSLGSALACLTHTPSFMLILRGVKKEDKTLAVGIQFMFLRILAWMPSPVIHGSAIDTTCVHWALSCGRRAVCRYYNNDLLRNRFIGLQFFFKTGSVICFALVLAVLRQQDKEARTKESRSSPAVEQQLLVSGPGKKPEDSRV
Protocol: (§1) Direct uptake of AMP, MYR, and their sulfate metabolites were examined in A431 cells overexpressing OATP1B1 or OATP2B1, and in their mock‐transfected controls using APB as a fluorescence enhancer. One day before the uptake measurements, the cells were seeded onto 96‐well plates at a density of 80 000 cells/well in DMEM (200 μL). The following day, the cell culture medium was removed, and the cells were rinsed thrice with PBS (200 μL). Thereafter, the cells were preincubated with HBSS (50 μL) for 5 min at 37°C. The uptake reaction was initiated by the addition of a further 50 μL of HBSS containing AMP, MYR, or their sulfate conjugates (10 μM). After incubating for 15 min at 37°C, the reaction was stopped by removing the supernatant and rinsing the cells three times with ice‐cold PBS. Then PBS buffer (200 μL) containing APB (250 μg/mL) and BSA (1 mg/mL) was added to each well.[35] The fluorescence was read using an Enspire plate reader using the wavelengths listed in Section 2.7.
(§2) The concentration‐dependent uptake of M3′S was also tested under the same conditions, except the cells were incubated with 0–10 μM M3′S for 2 min (OATP1B1) or 5 min (OATP2B1).
(§3) To test the effect of BSP (a known inhibitor of OATPs[44]) on the cellular uptake of M3′S, cells were preincubated with HBSS buffer (50 μL) with or without BSP (20 μM) for 5 min at 37°C. Thereafter, we added 50 μL of HBSS containing M3′S (final concentration: 2 μM), and cells were further incubated at 37°C for 2 min (OATP1B1) or 5 min (OATP2B1). The reaction was stopped by removing the supernatant. After washing the cells with ice‐cold PBS, a PBS buffer with APB/BSA was added. Fluorescence was determined by applying an Enspire plate reader at excitation/emission wavelengths of 480/540 nm.

OATP1B1 [2] = target: T2, OATP1B1 (Homo sapiens, UniProt Q9Y6L6); assay: Uptake of flavonoids by A431-OATP1B1 versus mock cells (APB fluorescence); type: cell-based; conditions: for cellular flavonoid level in OATP1B1‐overexpressing versus mock control cells: 10 μM flavonoid, 15 min, 37°C; for substrate of OATP1B1: conclusion from uptake studies
T2 construct: expressed in transfected cells; host or cells: A431
T2 sequence (Q9Y6L6 1-691): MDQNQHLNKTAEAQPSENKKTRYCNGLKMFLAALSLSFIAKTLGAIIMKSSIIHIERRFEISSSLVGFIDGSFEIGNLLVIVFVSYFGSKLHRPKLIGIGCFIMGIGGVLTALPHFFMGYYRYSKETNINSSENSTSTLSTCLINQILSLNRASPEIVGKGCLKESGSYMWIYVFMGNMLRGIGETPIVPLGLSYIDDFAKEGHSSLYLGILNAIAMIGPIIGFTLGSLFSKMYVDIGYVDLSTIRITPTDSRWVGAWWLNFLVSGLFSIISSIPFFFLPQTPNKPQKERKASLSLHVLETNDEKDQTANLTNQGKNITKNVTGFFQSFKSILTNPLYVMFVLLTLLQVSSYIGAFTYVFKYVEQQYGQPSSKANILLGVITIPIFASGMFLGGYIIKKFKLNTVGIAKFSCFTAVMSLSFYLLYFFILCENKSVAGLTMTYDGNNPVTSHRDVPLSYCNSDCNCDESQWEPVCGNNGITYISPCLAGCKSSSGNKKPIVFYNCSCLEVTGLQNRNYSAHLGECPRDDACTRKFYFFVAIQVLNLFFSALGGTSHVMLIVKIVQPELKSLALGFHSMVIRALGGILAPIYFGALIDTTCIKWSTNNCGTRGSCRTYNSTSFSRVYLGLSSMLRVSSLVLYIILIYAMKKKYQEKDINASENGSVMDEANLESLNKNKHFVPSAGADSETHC
Protocol: as §1, §2, §3

CYP2C19 = tested on: T3, CYP2C19; assay: CYP2C19 assay ((S)‐mephenytoin hydroxylation), CypExpress human kit; type: biochemical; conditions: probe (S)‐mephenytoin, 20 μM flavonoid, 5 μM substrate, read-out: inhibitory action on CYP2C19‐mediated (S)‐mephenytoin hydroxylation
T3 construct: purchased Merck (Darmstadt, Germany)
Protocol: The isocratic elution was carried out with sodium acetate buffer (6.9 mM, pH 4) and acetonitrile (72:28 v/v%) as the mobile phase. (S)‐Mephenytoin and 4‐hydroxymephenytoin were detected at 230 nm.

[3] = cited from earlier work
[4] = parameters: method as in PMID 26032587; conditions: double‐blind randomized controlled clinical trial; cited from earlier work
OATP1B1 [5] = conditions: cited from earlier work
OATP2B1 [6] = tested on: OATP2B1; parameters: method as in PMID 37252098, PMID 28745105; conditions: cited from earlier work
[7] = cited from earlier work; remark: listed apart in the source

Row | SMILES | cellular flavonoid level in OATP2B1‐overexpressing versus mock control cells (OATP2B1 [1]) | substrate of OATP2B1 (OATP2B1 [1]) | cellular flavonoid level in OATP1B1‐overexpressing versus mock control cells (OATP1B1 [2]) | substrate of OATP1B1 (OATP1B1 [2]) | inhibition at 20 μM (CYP2C19) | oral bioavailability ([3]; AMP, rat studies) | peak plasma concentrations of the aglycone ([3]; rats, peroral 100 mg/kg AMP) | effect in patients with nonalcoholic fatty liver disease [4] | concentration‐dependent uptake in OATP2B1‐overexpressing cells (OATP2B1 [1]; 0–10 μM, 5 min) | concentration‐dependent uptake in OATP1B1‐overexpressing cells (OATP1B1 [2]; 0–10 μM, 2 min) | decrease in the OATP1B1‐mediated transport of dehydroepiandrosterone sulfate and fluvastatin (OATP1B1 [5]; 50 μM MYR) | IC50 (OATP1B1 [5]; read-out: IC50, OATP1B1, 2′,7′‐dichlorofluorescein uptake) | inhibitory effects on OATP2B1‐dependent transport of 4′,5′‐dibromofluorescein and estrone 3‐sulfate (OATP2B1 [6]) | effect on plasma levels of tolbutamide (CYP2C9 substrate) and midazolam (CYP3A4 substrate) ([7]; rat experiment) | effect of peroral co‐administration on docetaxel pharmacokinetics ([7]; rat study) | oral bioavailability ([3]; MYR, rats) | peak plasma concentrations of MYR and its (sulfate and glucuronide) metabolites together ([3]; rats, per os 100 mg/kg MYR)
1 | O=C1c2c(O)cc(O)cc2OC(c2cc(O)c(OS(=O)(=O)O)c(O)c2)C1O (centres unmarked) [A4′S, ampelopsin‐4′‐O‐sulfate] | did not show statistically significant differences | not substrates | did not show statistically significant differences | not substrates | – | – | – | – | – | – | – | – | – | – | – | – | –
2 | O=C1c2c(O)cc(O)cc2O[C@H](c2cc(O)c(O)c(O)c2)[C@H]1O [AMP, ampelopsin] | did not show statistically significant differences | not substrates | did not show statistically significant differences | not substrates | 5% | approximately 4% | 300 to 500 nM | improved glucose and lipid metabolism | – | – | – | – | – | – | – | – | –
3 | O=c1c(O)c(-c2cc(O)c(O)c(OS(=O)(=O)O)c2)oc2cc(O)cc(O)c12 [M3′S, myricetin‐3′‐O‐sulfate] | almost five‐fold | substrate | more than two‐fold | substrate | – | – | – | – | saturable uptake | saturable uptake | – | – | – | – | – | – | –
4 | O=c1c(O)c(-c2cc(O)c(O)c(O)c2)oc2cc(O)cc(O)c12 [MYR, myricetin] | did not show statistically significant differences | not substrates | did not show statistically significant differences | not substrates | – | – | – | – | – | – | approximately 35% | 5.8 µM | only weak inhibitory effects | increased the plasma levels of tolbutamide | increased the oral bioavailability and peak plasma concentration of the drug | less than 10% | 8 µM
